Source: patent publication US9999611B2, “SIRT 1 activator including syringaresinol” (AMOREPACIFIC CORPORATION, priority 2011, dated 2018)

Assays:
[1] = tested on: aged retinal cells (ARPE-19); assay: Mitochondrial biosynthesis promoting effect in aged retinal cells (mitochondrial DNA relative to nuclear DNA, real-time PCR); type: cell-based, human; conditions: vs DMSO, FIG. 15
Method: The aging of retinal cells was induced while treating with 50 or 100 μM syringaresinol or with DMSO as a negative control, in substantially the same manner as in Test Example 7. The cells treated with each sample were washed 2 times with cold PBS and genomic DNA (gDNA) was extracted therefrom using the FastPure DNA kit (Tokyo, Japan). For evaluation of mitochondrial biosynthesis, the quantity of the mitochondrial DNA marker cytochrome oxidase subunit II and the nuclear DNA marker cyclophilin A was quantified through real-time PCR using the extracted gDNA and the number of mitochondria was measured by calculating the quantity of mitochondrial DNA relative to the nuclear DNA. PCR reaction and analysis were carried out using the Rotor-Gene 3000 system (Corbett Research, Sydney, Australia).

SIRT1 [2] = assay: SIRT1 expression promoting effect in aged human retinal epithelial cells (western blotting); type: cell-based; conditions: aged ARPE-19 cells (5 PDL to 15 PDL), FIG. 14
Method: The SIRT1 gene expression promoting effect of syringaresinol in aged human retinal epithelial cells was evaluated as follows. Human retinal […] cell line ARPE-19 was purchased from ATCC (Manassa, Va., USA) and cultured in a 5% CO2 incubator using DMEM (Gibco BRL, Grand Island, N.Y., USA) containing 10% bovine serum, 1% penicillin/streptomycin, amphotericin B and an antifungal agent until 70% confluency. […] The population doubling level (PDL) was calculated according to the following equation for each generation until the cell growth was stopped. The PDL value is higher in aged cells. PDL=(Log10Y−Log10X)/Log102 Y: number of cells at the end of the generation X: number of cells at the beginning of the generation 5 PDL cells were treated with syringaresinol dissolved in DMSO at a concentration of 50 or 100 μM every other day while inducing aging to 15 PDL cells. The cells of a negative control were treated with DMSO corresponding to 1/1000 of the volume of the culture medium. […] The isolated protein was quantitated using the BCA assay kit (Pierce, Rockford, USA) and 30 μg was subjected to western blotting using the iBlot Dry blotting system (Invitrogen, Carlsbad, Calif., USA). The SIRT1 protein expression level was measured using anti-SIRT1 antibody (Santa Cruz Biotechnology, Santa Cruz, Calif., USA).

[3] = tested on: PGC-1α and PGC-1β, IL-10 and arginase I; assay: Change in human PBMC type: expression of type 2 immune cell-related genes; type: cell-based; conditions: human PBMCs, 20, 50 or 100 μM, vs DMSO; FIG. 21
Method: After treating human PBMCs with 20, 50 or 100 μM syringaresinol or DMSO in substantially the same manner as in Test Example 11, RNA was extracted from the PBMCs and cDNA was synthesized therefrom in order to measure the expression of type 2 immune cell-related genes. The expression pattern of the transcriptional regulators necessary for inducement of differentiation to type 2 immune cells, such as PGC-1α and PGC-1β, and the genes mainly expressed in type 2 immune cells, such as IL-10 and arginase I, was measured using the synthesized cDNA.

SIRT1 [4] = assay: SIRT1 expression promoting effect in adipocytes, hepatocytes and myocytes (qRT-PCR); type: cell-based, human; conditions: 24 hours, FIG. 4
Method: The SIRT1 gene expression promoting effect of syringaresinol in human adipocytes, hepatocytes and myocytes was evaluated as follows.
Human adipocytes, hepatocytes and myocytes were purchased from Zen-Bio (Research Triangle Park, N.C., USA) and cultured in a 5% CO2 incubator using respectively an adipocyte medium (OM-AM, Zen-Bio), a hepatocyte medium (HM-2, Zen-Bio) and a myocyte medium (SKM-D, SKM-M, Zen-Bio). The cells were treated with syringaresinol dissolved in DMSO to a concentration of 20, 50 or 100 μM for 24 hours. A negative control group was treated with DMSO corresponding to 1/1000 of the volume of the culture medium.
The cells treated with each sample were washed 2 times with cold PBS and RNA was extracted therefrom using the TRIzol reagent (Invitrogen). Then, cDNA was synthesized from the extracted RNA ([…]) using a reverse transcription system (Fermentas, Glen Burnie, Md., USA). The expression pattern of the SIRT1 and GAPDH genes was monitored by qRT-PCR using the synthesized cDNA and predesigned primers and probes. PCR reaction and analysis were carried out using the Rotor-Gene 3000 system (Corbett Research, Sydney, Australia).

[5] = tested on: IL-1b, IL-6. iNOS, COX2, MMP9 and CCR2; assay: Inhibition of expression of inflammation-related genes in LPS-treated human PBMCs; type: cell-based; conditions: human PBMCs pretreated with 50 μM, then 10 ng/mL LPS; compared to cells treated only with LPS; FIG. 19
Method: After pretreating human PBMCs with 50 μM syringaresinol, inflammatory response was induced by treating with 10 ng/mL LPS, in substantially the same manner as in Test Example 11. The cells treated with each sample were washed with PBS and RNA and cDNA were extracted and synthesized therefrom. Then, the expression pattern of the inflammatory response-related genes IL-1b, IL-6. iNOS, COX2, MMP9 and CCR2 was monitored using the synthesized cDNA and predesigned primers.

PGC-1β = PGC-1β mRNA expression promoting effect (qRT-PCR); type: cell-based, human; conditions: 50 μM, vs DMSO control, FIG. 13
Method: (§1) Human adipocytes, hepatocytes and myocytes were treated with 50 μM syringaresinol in substantially the same manner as in Test Example 3 and washed with PBS. Then, RNA and cDNA were sequentially extracted therefrom. The mRNA expression of the energy metabolism-related genes PGC-1α and PGC-1β was analyzed by qRT-PCR. A result of comparing the expression of PGC-1α and PGC-1β with a control group treated only with DMSO is shown in FIG. 12 and FIG. 13, respectively.

PGC-1α = PGC-1α mRNA expression promoting effect (qRT-PCR); type: cell-based, human; conditions: 50 μM, vs DMSO control, FIG. 12
Method: as §1

## COc1cc(C2OCC3C(c4cc(OC)c(O)c(OC)c4)OCC23)cc(OC)c1O (stereo not drawn) [syringaresinol]
[1]; 50 μM
  increase in mitochondrial biosynthesis (mitochondrial DNA relative to nuclear DNA): about 40%
[1]; 100 μM
  increase in mitochondrial biosynthesis (mitochondrial DNA relative to nuclear DNA): ~60%
SIRT1 [2]; 100 μM every other day
  SIRT1 protein expression: increased SIRT1 expression to a level comparable to that of young retinal epithelial cells
SIRT1 [2]; 50 or 100 μM every other day
  SIRT1 protein expression: increased SIRT1 expression, which had been decreased in aged retinal cells, in a concentration-dependent manner
[3]
  expression of type 2 immune cell-specific marker genes: significantly increased expression
SIRT1 [4]; human adipocytes, 20, 50 or 100 μM
  SIRT1 expression: increased SIRT1 expression
SIRT1 [4]; human hepatocytes, 20, 50 or 100 μM
  SIRT1 expression: increased SIRT1 expression
SIRT1 [4]; human myocytes, 20, 50 or 100 μM
  SIRT1 expression: increased SIRT1 expression
[5]
  decreased expression of the inflammatory response-related genes: about 90%
PGC-1β; human adipocytes
  expression of PGC-1β: increased the expression
PGC-1β; human hepatocytes
  expression of PGC-1β: increased the expression
PGC-1β; human myocytes
  expression of PGC-1β: increased the expression
PGC-1α; human adipocytes
  expression of PGC-1α: increased the expression
PGC-1α; human hepatocytes
  expression of PGC-1α: increased the expression
PGC-1α; human myocytes
  expression of PGC-1α: increased the expression
